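Following 48 hours of exposure in 96-well plates, responses at five concentrations were used to interpolate endpoints linearly. GI50 is the concentration that inhibits growth by half. At the TGI there is no net growth.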

Holding throughout (experiment): NCI-60 cell line screen, 48 h
In experiment [1] the test system is SF-268 CNS.
Experiment [2] deals with HS 578T breast.
Experiment [3] deals with NCI-H23 lung.
Experiment [4] concerns SNB-19 CNS.
For experiment [5], the system named is A498 renal.
Experiment [6] has as its system RXF 393 renal.
For experiment [7], the system named is BT-549 breast.
Experiment [8] has as its system RPMI-8226 leukemia.
Experiment [9] deals with MCF7 breast.

Turning to `C=C1CCC2C3(C)COC(c4ccccc4)OC3CCC2(C)C1/C=C/C1=CCOC1=O` (stereo not drawn), the GI50 in experiment [1] was 5.22 µM; in experiment [2], 1.86 µM; in experiment [3], 9.68 µM; in [4], 35.8 µM; in experiment [5] it was 17.9 µM; in [6], 2.93 µM. Also, the values for the GI50 in [7], in experiment [8] and in [9] were 6.29 µM, 1.69 µM and 1.96 µM, respectively. For the same compound, the TGI is 22.5 µM in experiment [1]; 8.61 µM in [2]; 24.2 µM in experiment [3]; above 100 µM in experiment [4]; 46 µM in [5]; 8.65 µM in experiment [6]. Further, the TGI turned out to be 20.8 µM in [7], 5.69 µM in experiment [8] and 7.59 µM in experiment [9].
Take `O=Nc1ccc(NO)c2ccccc12`: the GI50 is 13.8 µM in experiment [1]; 28.3 µM in experiment [2]; 7.03 µM in experiment [3]; 15.1 µM in experiment [4]; 18.9 µM in experiment [5]; 11.8 µM in [6]. Besides, the GI50 is 15.7 µM in [7], 13.3 µM in experiment [8] and 10.5 µM in [9]. The TGI was 27.8 µM in experiment [1]; above 100 µM in experiment [2]; 23.5 µM in experiment [3]; 28.5 µM in experiment [4]; 36 µM in experiment [5]; 24.2 µM in [6]. In addition, the TGI came out at 29.4 µM in [7], 56.2 µM in experiment [8] and 31.3 µM in experiment [9].
As to `Clc1ccc(-c2c3c(nn2-c2ccccn2)CCc2ccccc2-3)cc1Cl`, the GI50 in experiment [1] is above 100 µM; in experiment [2], above 100 µM; in [3], above 100 µM; in experiment [4], above 100 µM; in experiment [5], above 100 µM; in experiment [6] it was 94.6 µM. For the same compound, the GI50 is above 100 µM in experiment [7], 31.4 µM in experiment [8] and above 100 µM in experiment [9]. The TGI in [1], in experiment [2], in [3], in experiment [4], in experiment [5] and in experiment [6] was above 100 µM throughout. Besides, the TGI in experiment [7], in experiment [8] and in experiment [9] was above 100 µM throughout.
Turning to `CC(=O)C1=C(O)C=C2Oc3c(C(=O)/C=C/c4c(Cl)cccc4Cl)c(O)c(C)c(O)c3[C@]2(C)C1=O`, the GI50 in experiment [1] was 0.856 µM; in experiment [2] it was 2.39 µM; in [3], 1.23 µM; in experiment [4], 1.08 µM; in experiment [5], 1.6 µM; in experiment [6], 2.32 µM. For the same compound, the GI50 in [7] was 1.43 µM; in experiment [8] it was 0.5 µM; in experiment [9] it was 0.436 µM. Also, the TGI in [1] turned out to be 3.73 µM; in [2], 7.86 µM; in [3] it was 5.82 µM; in [4], 5.93 µM; in [5] it was 3.66 µM; in experiment [6], 5.03 µM. Moreover, the TGI stood at 5.28 µM in experiment [7], 1.77 µM in [8] and 2.75 µM in experiment [9].
On to `COc1cc(C2SCC(=O)N2c2ncc(C)s2)cc(OC)c1OC` (stereo not drawn), for which the GI50 in experiment [1] is above 50 µM; in experiment [2], 44.6 µM; in experiment [3] it was 30.6 µM; in experiment [4], 34.5 µM; in experiment [5] it was 0.366 µM; in experiment [6] it was 27.5 µM. For the same compound, the GI50 was 37.5 µM in experiment [7], 17.2 µM in [8] and above 50 µM in experiment [9]. In addition, the TGI in [1], in experiment [2], in [3], in experiment [4], in experiment [5] and in experiment [6] was above 50 µM in each case. The TGI in [7], in experiment [8] and in experiment [9] was above 50 µM each time.
As to `C#Cc1c(/C=C/C(=O)OCC)ccc2ccccc12`, the GI50 in [1] was 18.2 µM; in experiment [2], 27.2 µM; in [3], 20.1 µM; in experiment [4], 36.8 µM; in experiment [5], 15.2 µM; in experiment [6] it was 22.6 µM. Besides, the figures for the GI50 in experiment [7], in experiment [8] and in experiment [9] were 18.7 µM, 10.7 µM and 24 µM, respectively. Moreover, the TGI in [1] is 58.5 µM; in experiment [2], 83.2 µM; in [3], 47.9 µM; in experiment [4], above 100 µM; in [5], 37.8 µM; in experiment [6], 69.7 µM. For the same compound, the TGI was 44.7 µM in [7], 29.3 µM in [8] and above 100 µM in experiment [9].

The values are drawn from PubChem BioAssay (NCI).
